This note sets out measurements from ChEMBL document CHEMBL1136143, “Synthesis and activity of novel benzoxazole derivatives of mannopeptimycin glycopeptide antibiotics” (2003).

Each structure is given as a SMILES string. Values after ≈ are worked out from the molar mass of the structure shown. Some results are limits rather than exact numbers.

Format in all cases: functional
In one test the test system is Staphylococcus aureus. Description: In vitro minimum inhibitory concentration against Staphylococcus aureus (10strains, including MRSA).
Another test has as its system Streptococcus. Description: In vitro minimum inhibitory concentration against Streptococcus Species (5 strains, including PRSP).
For the next test, the system named is Enterococcus sp. Description: In vitro minimum inhibitory concentration against Enterococcus species (11 strains, including VRE).

`C[C@@H](c1ccccc1)[C@@H]1NC(=O)CNC(=O)[C@H](CO)NC(=O)[C@@H]([C@@H](O)[C@@H]2CN=C(N)N2)NC(=O)[C@H]([C@H](O)[C@@H]2CN=C(N)N2)NC(=O)[C@@H](Cc2ccc3nc(-c4ccccc4)oc3c2)NC1=O`: the MIC in the test on Staphylococcus aureus, with Streptococcus and against Enterococcus sp. was 32 µg/mL (≈ 35.2 µM) each time.
For the compound `COc1cc(-c2nc3ccc(C[C@H]4NC(=O)[C@H]([C@@H](C)c5ccccc5)NC(=O)CNC(=O)[C@H](CO)NC(=O)[C@@H]([C@@H](O)[C@@H]5CN=C(N)N5[C@H]5O[C@H](CO)[C@@H](O)[C@H](O)[C@@H]5O)NC(=O)[C@H]([C@H](O)[C@@H]5CN=C(N)N5)NC4=O)cc3o2)cc(OC)c1OC`, the minimal inhibitory concentration (MIC) against Staphylococcus aureus, against Streptococcus and in the test on Enterococcus sp. was 8 µg/mL (≈ 6.88 µM) each time.
On to `C[C@@H](c1ccccc1)[C@@H]1NC(=O)CNC(=O)[C@H](CO)NC(=O)[C@@H]([C@@H](O)[C@@H]2CN=C(N)N2[C@H]2O[C@H](CO)[C@@H](O)[C@H](O)[C@@H]2O)NC(=O)[C@H]([C@H](O)[C@@H]2CN=C(N)N2)NC(=O)[C@@H](Cc2ccc3nc(-c4ccc(C(C)(C)C)cc4)oc3c2)NC1=O`, for which the MIC is 2 µg/mL (≈ 1.77 µM) in the test on Staphylococcus aureus, 8 µg/mL (≈ 7.09 µM) against Streptococcus and 2 µg/mL (≈ 1.77 µM) in the test on Enterococcus sp..
Take `C[C@@H](c1ccccc1)[C@@H]1NC(=O)CNC(=O)[C@H](CO)NC(=O)[C@@H]([C@@H](O)[C@@H]2CN=C(N)N2[C@H]2O[C@H](CO)[C@@H](O)[C@H](O)[C@@H]2O)NC(=O)[C@H]([C@H](O)[C@@H]2CN=C(N)N2)NC(=O)[C@@H](Cc2ccc3nc(SCc4ccc(-c5ccccc5)cc4)oc3c2)NC1=O`: the minimal inhibitory concentration (MIC) in the test with Staphylococcus aureus is 8 µg/mL (≈ 6.7 µM); with Streptococcus, 2 µg/mL (≈ 1.67 µM); in the test with Enterococcus sp. it was 2 µg/mL (≈ 1.67 µM).
For the compound `C[C@@H](c1ccccc1)[C@@H]1NC(=O)CNC(=O)[C@H](CO)NC(=O)[C@@H]([C@@H](O)[C@@H]2CN=C(N)N2[C@H]2O[C@H](CO)[C@@H](O)[C@H](O)[C@@H]2O)NC(=O)[C@H]([C@H](O)[C@@H]2CN=C(N)N2)NC(=O)[C@@H](Cc2ccc3nc(NC4O[C@@H](OC(=O)c5ccccc5)[C@H](OC(=O)c5ccccc5)[C@@H](OC(=O)c5ccccc5)[C@@H]4COC(=O)c4ccccc4)oc3c2)NC1=O` (some centres undefined), the minimum inhibitory concentration (MIC) in the test on Staphylococcus aureus was 32 µg/mL (≈ 20.1 µM); against Streptococcus, 4 µg/mL (≈ 2.52 µM); with Enterococcus sp., 4 µg/mL (≈ 2.52 µM).
As to `C[C@@H](c1ccccc1)[C@@H]1NC(=O)CNC(=O)[C@H](CO)NC(=O)[C@@H]([C@@H](O)[C@@H]2CN=C(N)N2[C@H]2O[C@H](CO)[C@@H](O)[C@H](O)[C@@H]2O)NC(=O)[C@H]([C@H](O)[C@@H]2CN=C(N)N2)NC(=O)[C@@H](Cc2ccc3nc(-c4cccc(C(C)(C)C)c4)oc3c2)NC1=O`, the MIC with Staphylococcus aureus is 16 µg/mL (≈ 14.2 µM); in the test on Streptococcus, 8 µg/mL (≈ 7.09 µM); in the test with Enterococcus sp., 8 µg/mL (≈ 7.09 µM).
Turning to `C[C@@H](c1ccccc1)[C@@H]1NC(=O)CNC(=O)[C@H](CO)NC(=O)[C@@H]([C@@H](O)[C@@H]2CN=C(N)N2[C@H]2O[C@H](CO)[C@@H](O)[C@H](O)[C@@H]2O)NC(=O)[C@H]([C@H](O)[C@@H]2CN=C(N)N2)NC(=O)[C@@H](Cc2ccc3nc(SCc4ccccc4)oc3c2)NC1=O`, the minimum inhibitory concentration (MIC) with Staphylococcus aureus, against Streptococcus and in the test with Enterococcus sp. was 4 µg/mL (≈ 3.58 µM) throughout.
On to `C[C@@H](c1ccccc1)[C@@H]1NC(=O)CNC(=O)[C@H](CO)NC(=O)[C@@H]([C@@H](O)[C@@H]2CN=C(N)N2[C@H]2O[C@H](CO)[C@@H](O)[C@H](O)[C@@H]2O)NC(=O)[C@H]([C@H](O)[C@@H]2CN=C(N)N2)NC(=O)[C@@H](Cc2ccc3nc(-c4ccccc4OC4O[C@H](CO)[C@@H](O)[C@H](O)[C@H]4O)oc3c2)NC1=O` (some centres undefined), for which the values for the MIC with Staphylococcus aureus, with Streptococcus and against Enterococcus sp. were over 128 µg/mL, 128 µg/mL (≈ 102 µM) and 128 µg/mL (≈ 102 µM), respectively.
On to `C[C@@H](c1ccccc1)[C@@H]1NC(=O)CNC(=O)[C@H](CO)NC(=O)[C@@H]([C@@H](O)[C@@H]2CN=C(N)N2[C@H]2O[C@H](CO)[C@@H](O)[C@H](O)[C@@H]2O)NC(=O)[C@H]([C@H](O)[C@@H]2CN=C(N)N2)NC(=O)[C@@H](Cc2ccc3nc(-c4ccc(Br)cc4)oc3c2)NC1=O`, for which the MIC turned out to be 8 µg/mL (≈ 6.95 µM) against Staphylococcus aureus, 4 µg/mL (≈ 3.48 µM) against Streptococcus and 8 µg/mL (≈ 6.95 µM) against Enterococcus sp..
As for `C[C@@H](c1ccccc1)[C@@H]1NC(=O)CNC(=O)[C@H](CO)NC(=O)[C@@H]([C@@H](O)[C@@H]2CN=C(N)N2[C@H]2O[C@H](CO)[C@@H](O)[C@H](O)[C@@H]2O)NC(=O)[C@H]([C@H](O)[C@@H]2CN=C(N)N2)NC(=O)[C@@H](Cc2ccc3nc(SCC(=O)c4ccccc4)oc3c2)NC1=O`, the figures for the MIC in the test on Staphylococcus aureus, against Streptococcus and in the test with Enterococcus sp. were 8 µg/mL (≈ 6.98 µM), 8 µg/mL (≈ 6.98 µM) and 4 µg/mL (≈ 3.49 µM), respectively.
As to `C[C@@H](c1ccccc1)[C@@H]1NC(=O)CNC(=O)[C@H](CO)NC(=O)[C@@H]([C@@H](O)[C@@H]2CN=C(N)N2[C@H]2O[C@H](CO)[C@@H](O)[C@H](O)[C@@H]2O)NC(=O)[C@H]([C@H](O)[C@@H]2CN=C(N)N2)NC(=O)[C@@H](Cc2ccc3nc(-c4ccc(-c5ccccc5)cc4)oc3c2)NC1=O`, the MIC turned out to be 4 µg/mL (≈ 3.48 µM) against Staphylococcus aureus, 16 µg/mL (≈ 13.9 µM) in the test on Streptococcus and 4 µg/mL (≈ 3.48 µM) against Enterococcus sp..
Turning to `C[C@@H](c1ccccc1)[C@@H]1NC(=O)CNC(=O)[C@H](CO)NC(=O)[C@@H]([C@@H](O)[C@@H]2CN=C(N)N2[C@H]2O[C@H](CO)[C@@H](O)[C@H](O)[C@@H]2O)NC(=O)[C@H]([C@H](O)[C@@H]2CN=C(N)N2)NC(=O)[C@@H](Cc2ccc3nc(-c4ccc(OCc5ccccc5)cc4)oc3c2)NC1=O`, the results for the minimum inhibitory concentration (MIC) in the test with Staphylococcus aureus, against Streptococcus and in the test on Enterococcus sp. were 8 µg/mL (≈ 6.79 µM), 8 µg/mL (≈ 6.79 µM) and 4 µg/mL (≈ 3.39 µM), respectively.
Take `CC(C)=Cc1nc2ccc(C[C@H]3NC(=O)[C@H]([C@@H](C)c4ccccc4)NC(=O)CNC(=O)[C@H](CO)NC(=O)[C@@H]([C@@H](O)[C@@H]4CN=C(N)N4[C@H]4O[C@H](CO)[C@@H](O)[C@H](O)[C@@H]4O)NC(=O)[C@H]([C@H](O)[C@@H]4CN=C(N)N4)NC3=O)cc2o1`: the MIC was 32 µg/mL (≈ 30.5 µM) with Staphylococcus aureus, 32 µg/mL (≈ 30.5 µM) with Streptococcus and 16 µg/mL (≈ 15.2 µM) against Enterococcus sp..
In the case of `C[C@@H](c1ccccc1)[C@@H]1NC(=O)CNC(=O)[C@H](CO)NC(=O)[C@@H]([C@@H](O)[C@@H]2CN=C(N)N2[C@H]2O[C@H](CO)[C@@H](O)[C@H](O)[C@@H]2O)NC(=O)[C@H]([C@H](O)[C@@H]2CN=C(N)N2)NC(=O)[C@@H](Cc2ccc3nc(-c4ccc(C(=O)O)cc4)oc3c2)NC1=O`, the MIC in the test on Staphylococcus aureus is over 128 µg/mL; against Streptococcus, 128 µg/mL (≈ 115 µM); against Enterococcus sp., 128 µg/mL (≈ 115 µM).
`CN[C@H](CC(C)C)C(=O)N[C@H]1C(=O)N[C@@H](CC(N)=O)C(=O)N[C@H]2C(=O)N[C@H]3C(=O)N[C@H](C(=O)N[C@H](C(=O)O)c4cc(O)cc(O)c4-c4cc3ccc4O)[C@H](O)c3ccc(c(Cl)c3)Oc3cc2cc(c3O[C@@H]2O[C@H](CO)[C@@H](O)[C@H](O)[C@H]2O[C@H]2C[C@](C)(N)[C@H](O)[C@H](C)O2)Oc2ccc(cc2Cl)[C@H]1O` [VANCOMYCIN]: the minimum inhibitory concentration (MIC) against Streptococcus worked out at 0.25 µg/mL (≈ 0.173 µM); in the test on Enterococcus sp., 5 µg/mL (≈ 3.45 µM).

By MIC is commonly meant the lowest concentration that inhibits growth of the organism. High values mean a need for much substance, low ones inhibition by little substance.
